Source: US20250051344A1, “BIFUNCTIONAL SELECTIVE DEGRADERS OF SMARCA2 AND THERAPEUTIC USES THEREOF” (Nurix Therapeutics, Inc., priority 2023, published 2025)

Experiments:
SMARCA4 = target: T1, SMARCA4 (Homo sapiens, UniProt P51532); assay: Cellular degradation assay, SMARCA4 (Table 1); assay type: cell-based
T1 construct: endogenous in cells

SMARCA2 = target: T2, SMARCA2 (Homo sapiens, UniProt P51531); assay: SMARCA2 Cellular Degradation Assay (Western blot analysis on Jess platform); assay type: cell-based; details: for DC50 / Dmax: cellular degradation; for Fold Selectivity SMARCA4/2: ratio DC50 SMARCA4 / DC50 SMARCA2
T2 construct: endogenous in cells
T2 sequence (P51531 whole entry, species assumed): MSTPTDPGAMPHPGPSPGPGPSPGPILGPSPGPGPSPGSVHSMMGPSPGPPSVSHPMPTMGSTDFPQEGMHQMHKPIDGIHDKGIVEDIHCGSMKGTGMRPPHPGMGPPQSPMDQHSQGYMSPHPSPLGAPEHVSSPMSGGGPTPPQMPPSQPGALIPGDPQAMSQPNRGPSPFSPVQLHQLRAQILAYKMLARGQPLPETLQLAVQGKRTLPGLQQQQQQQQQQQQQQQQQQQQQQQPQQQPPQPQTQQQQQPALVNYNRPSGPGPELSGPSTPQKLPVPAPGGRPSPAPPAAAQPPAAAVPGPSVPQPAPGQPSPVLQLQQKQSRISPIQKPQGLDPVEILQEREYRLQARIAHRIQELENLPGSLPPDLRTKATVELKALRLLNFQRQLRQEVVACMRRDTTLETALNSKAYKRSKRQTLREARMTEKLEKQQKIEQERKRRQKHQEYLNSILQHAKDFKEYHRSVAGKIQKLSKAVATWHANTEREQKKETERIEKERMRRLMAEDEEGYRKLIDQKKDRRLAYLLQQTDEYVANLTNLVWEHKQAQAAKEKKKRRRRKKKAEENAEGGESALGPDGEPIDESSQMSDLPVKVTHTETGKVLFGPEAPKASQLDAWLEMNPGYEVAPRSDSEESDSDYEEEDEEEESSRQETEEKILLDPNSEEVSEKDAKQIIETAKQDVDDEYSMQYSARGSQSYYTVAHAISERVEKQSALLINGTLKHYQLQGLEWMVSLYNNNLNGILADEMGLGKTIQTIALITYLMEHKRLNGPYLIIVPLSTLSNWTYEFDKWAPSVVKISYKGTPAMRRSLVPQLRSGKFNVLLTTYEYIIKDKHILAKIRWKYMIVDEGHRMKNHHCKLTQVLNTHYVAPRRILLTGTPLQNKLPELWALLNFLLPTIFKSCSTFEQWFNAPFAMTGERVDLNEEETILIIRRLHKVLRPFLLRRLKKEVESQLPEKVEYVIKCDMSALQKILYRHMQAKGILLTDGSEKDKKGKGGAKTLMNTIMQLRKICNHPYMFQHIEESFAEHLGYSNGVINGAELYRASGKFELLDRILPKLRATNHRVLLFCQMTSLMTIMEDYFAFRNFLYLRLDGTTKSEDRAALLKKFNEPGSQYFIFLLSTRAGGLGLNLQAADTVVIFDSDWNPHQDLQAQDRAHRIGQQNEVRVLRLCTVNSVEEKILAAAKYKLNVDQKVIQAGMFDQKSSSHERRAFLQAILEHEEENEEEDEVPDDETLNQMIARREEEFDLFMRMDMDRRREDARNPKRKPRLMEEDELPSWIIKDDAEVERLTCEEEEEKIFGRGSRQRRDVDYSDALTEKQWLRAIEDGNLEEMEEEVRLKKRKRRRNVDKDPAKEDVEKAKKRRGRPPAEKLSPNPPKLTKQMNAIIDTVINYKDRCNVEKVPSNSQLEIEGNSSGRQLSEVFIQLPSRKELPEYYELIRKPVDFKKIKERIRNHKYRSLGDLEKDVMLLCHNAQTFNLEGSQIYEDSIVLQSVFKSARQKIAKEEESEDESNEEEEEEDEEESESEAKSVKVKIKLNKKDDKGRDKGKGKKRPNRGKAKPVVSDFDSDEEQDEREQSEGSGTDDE
How it was run: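 Cells recovered from tumors are lysed, cleared at 20,817×g, and protein is quantified by BCA. Equal protein (5 μg) is then probed on Jess for SMARCA2 and actin, and normalized SMARCA2 signal is reported against vehicle.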

T1 sequence (P51532 whole entry, species assumed): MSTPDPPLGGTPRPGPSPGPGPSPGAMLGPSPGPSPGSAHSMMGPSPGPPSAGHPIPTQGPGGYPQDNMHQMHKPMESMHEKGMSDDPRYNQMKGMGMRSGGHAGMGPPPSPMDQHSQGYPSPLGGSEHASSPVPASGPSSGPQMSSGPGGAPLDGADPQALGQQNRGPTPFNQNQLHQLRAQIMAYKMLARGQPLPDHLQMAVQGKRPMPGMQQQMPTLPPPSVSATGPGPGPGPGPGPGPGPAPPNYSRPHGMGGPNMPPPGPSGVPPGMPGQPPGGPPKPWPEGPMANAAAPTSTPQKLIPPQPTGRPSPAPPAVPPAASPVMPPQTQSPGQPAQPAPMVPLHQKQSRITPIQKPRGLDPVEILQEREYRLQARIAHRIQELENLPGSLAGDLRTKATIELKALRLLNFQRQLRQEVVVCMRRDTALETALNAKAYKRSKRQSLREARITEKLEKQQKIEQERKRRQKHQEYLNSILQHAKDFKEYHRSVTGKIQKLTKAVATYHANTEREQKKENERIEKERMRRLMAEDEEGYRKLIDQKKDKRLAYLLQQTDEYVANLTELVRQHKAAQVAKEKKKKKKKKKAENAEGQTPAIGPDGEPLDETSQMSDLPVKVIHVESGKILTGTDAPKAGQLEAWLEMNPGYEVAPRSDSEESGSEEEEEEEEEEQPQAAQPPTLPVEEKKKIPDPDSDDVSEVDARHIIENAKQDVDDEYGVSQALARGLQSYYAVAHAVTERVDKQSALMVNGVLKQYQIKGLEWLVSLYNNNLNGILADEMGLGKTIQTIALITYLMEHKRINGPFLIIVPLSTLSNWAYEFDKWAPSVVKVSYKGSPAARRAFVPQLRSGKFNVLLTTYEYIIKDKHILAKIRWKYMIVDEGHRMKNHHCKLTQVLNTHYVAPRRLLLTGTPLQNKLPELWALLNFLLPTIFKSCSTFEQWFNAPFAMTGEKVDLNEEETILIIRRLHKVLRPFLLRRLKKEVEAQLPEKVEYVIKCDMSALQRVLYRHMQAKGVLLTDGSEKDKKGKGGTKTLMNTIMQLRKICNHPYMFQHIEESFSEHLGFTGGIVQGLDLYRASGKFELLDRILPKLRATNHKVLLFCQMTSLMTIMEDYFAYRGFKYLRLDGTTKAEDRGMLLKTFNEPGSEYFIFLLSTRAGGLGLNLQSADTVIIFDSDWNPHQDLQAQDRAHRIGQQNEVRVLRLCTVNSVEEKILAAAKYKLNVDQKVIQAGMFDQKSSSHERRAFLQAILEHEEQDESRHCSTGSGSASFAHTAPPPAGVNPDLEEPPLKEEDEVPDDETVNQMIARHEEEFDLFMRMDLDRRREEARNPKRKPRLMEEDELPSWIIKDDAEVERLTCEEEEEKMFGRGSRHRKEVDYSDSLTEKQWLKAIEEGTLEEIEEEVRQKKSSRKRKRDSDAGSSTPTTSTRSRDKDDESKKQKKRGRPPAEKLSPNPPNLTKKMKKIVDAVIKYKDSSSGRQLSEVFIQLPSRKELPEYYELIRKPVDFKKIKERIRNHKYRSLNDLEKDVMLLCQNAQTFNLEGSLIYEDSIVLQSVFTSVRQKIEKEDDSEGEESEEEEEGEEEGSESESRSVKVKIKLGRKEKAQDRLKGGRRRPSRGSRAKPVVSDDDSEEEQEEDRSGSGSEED

SMILES	Dmax (SMARCA4) [%]	DC50 (SMARCA2) [nM]	Dmax (SMARCA2) [%]	Fold Selectivity SMARCA4/2 (SMARCA2)	DC50 (SMARCA4) [nM]
Cn1ccc(OC2(C(=O)N3CCC4(CC3)CN(CCC3CCN(c5ccc(C6CCC(=O)NC6=O)cc5)CC3)C4)CCN(c3cnnc(-c4ccccc4O)c3)CC2)n1 (racemic) [Example 128, rac-3-(4-(4-(2-(7-(1-(6-(2-hydroxyphenyl)pyridazin-4-yl)-4-((1-methyl-1h-pyrazol-3-yl)oxy)piperidine-4-carbonyl)-2,7-diazaspiro[3.5]nonan-2-yl)ethyl)piperidin-1-yl)phenyl)piperidine-2,6-dione]	39.1	11.1	71.6	899	–
O=C1CCC(c2ccc(N3CCN(C(=O)CCCN4CCN(C(=O)C5(c6ccccc6)CCN(c6cnnc(-c7ccccc7O)c6)CC5)CC4)CC3)cc2)C(=O)N1 (racemic) [Example 22, rac-(3R)-3-(4-{4-[4-(4-{1-[6-(2-hydroxyphenyl)pyridazin-4-yl]-4-phenylpiperidine-4-carbonyl}piperazin-1-yl)butanoyl]piperazin-1-yl}phenyl)piperidine-2,6-dione]	20.6	–	30.5	1	–
CN(C(=O)C1(c2ccccc2)CCN(c2cnnc(-c3ccccc3O)c2)CC1)C1CCN(CCC2CCN(c3ccc(C4CCC(=O)NC4=O)cn3)CC2)CC1 (racemic) [Example 69, rac-N-(1-(2-(1-(5-(2,6-dioxopiperidin-3-yl)pyridin-2-yl)piperidin-4-yl)ethyl)piperidin-4-yl)-1-(6-(2-hydroxyphenyl)pyridazin-4-yl)-N-methyl-4-phenylpiperidine-4-carboxamide]	44.1	6.23	85.3	1605	–
O=C1CCC(c2ccc(N3C[C@@H]4CN(CC5CCN(C(=O)C6(c7ccccc7)CCN(c7cnnc(-c8ccccc8O)c7)CC6)CC5)C[C@H]4C3)cc2)C(=O)N1 (mixture of isomers) [Example 160, (3RS)-3-{4-[(3aS,6aS)-5-[(1-{1-[6-(2-hydroxyphenyl)pyridazin-4-yl]-4-phenylpiperidine-4-carbonyl}piperidin-4-yl)methyl]-octahydropyrrolo[3,4-c]pyrrol-2-yl]phenyl}piperidine-2,6-dione]	71.4	12	87.7	9	104
Cc1ccnn1C1(C(=O)N(C)C2CCN(CCC3CCN(c4cccc5c4n(C)c(=O)n5C4CCC(=O)NC4=O)CC3)CC2)CCN(c2cnnc(-c3ccccc3O)c2)CC1 (racemic) [Example 61, rac-N-{1-[2-(1-{1-[(3R)-2,6-dioxopiperidin-3-yl]-3-methyl-2-oxo-2,3-dihydro-1H-1,3-benzodiazol-4-yl}piperidin-4-yl)ethyl]piperidin-4-yl}-1-[6-(2-hydroxyphenyl)pyridazin-4-yl]-n-methyl-4-(5-methyl-1H-pyrazol-1-yl)piperidine-4-carboxamide]	86.8	0.18	96.7	19	3.49
CN(C(=O)CN1CCN(c2ccc([C@H]3CCC(=O)NC3=O)cc2)CC1)[C@H]1CC[C@H](NC(=O)C2(Oc3ccccc3)CCN(c3cnnc(-c4ccccc4O)c3)CC2)CC1 (racemic) [Example 173, 1-[6-(2-hydroxyphenyl)pyridazin-4-yl]-4-phenoxy-N-[(1r,4r)-4-[2-(4-{4-[(3R)-2,6-dioxopiperidin-3-yl]phenyl}piperazin-1-yl)-N-methylacetamido]cyclohexyl]piperidine-4-carboxamide]	39.8	44.9	62	223	–
Cn1c(=O)n(C2CCC(=O)NC2=O)c2ccc(N3CCC(CN4CCC5(CC4)CN(C(=O)C4(c6ccccc6)CCN(c6cnnc(-c7ccccc7O)c6)CC4)C5)CC3)cc21 (racemic) [Example 159, rac-(3R)-3-(5-{4-[(2-{1-[6-(2-hydroxyphenyl)pyridazin-4-yl]-4-phenylpiperidine-4-carbonyl}-2,7-diazaspiro[3.5]nonan-7-yl)methyl]piperidin-1-yl}-3-methyl-2-oxo-2,3-dihydro-1H-1,3-benzodiazol-1-yl)piperidine-2,6-dione]	82.2	0.38	89.5	4	1.45
CN(C(=O)C1(OC2CC2)CCN(c2cnnc(-c3ccccc3O)c2)CC1)C1CCN(CCC2CCN(c3ccc(C4CCC(=O)NC4=O)cc3)CC2)CC1 (racemic) [Example 124, rac-4-cyclopropoxy-N-{1-[2-(1-{4-[(3r)-2,6-dioxopiperidin-3-yl]phenyl}piperidin-4-yl)ethyl]piperidin-4-yl}-1-[6-(2-hydroxyphenyl)pyridazin-4-yl]-N-methylpiperidine-4-carboxamide]	25.1	11.3	75.9	882	–
O=C1CC[C@H](c2ccc(N3CCC(CN4CCC(NC(=O)C5(c6ccccc6)CCN(c6cnnc(-c7ccccc7O)c6)CC5)CC45CCC5)CC3)cc2)C(=O)N1 (stereo partly drawn) [Example 39, N-{5-[(1-{4-[(3R)-2,6-dioxopiperidin-3-yl]phenyl}piperidin-4-yl)methyl]-5-azaspiro[3.5]nonan-8-yl}-1-[6-(2-hydroxyphenyl)pyridazin-4-yl]-4-phenylpiperidine-4-carboxamide]	53.7	3.09	84.8	25.67	79.3
Cc1ccnn1C1(C(=O)N(C)C2CCN(CC3CCN(c4ccc(C5CCC(=O)NC5=O)cc4)CC3)CC2)CCN(c2cnnc(-c3ccccc3O)c2)CC1 (racemic) [Example 96, rac-N-{1-[(1-{4-[(3R)-2,6-dioxopiperidin-3-yl]phenyl}piperidin-4-yl)methyl]piperidin-4-yl}-1-[6-(2-hydroxyphenyl)pyridazin-4-yl]-N-methyl-4-(5-methyl-1H-pyrazol-1-yl)piperidine-4-carboxamide]	60	4.3	87.1	9	39.6
Cc1ccnn1C1(C(=O)N(C)C2CCN(C3COC4(CCN(c5ccc([C@H]6CCC(=O)NC6=O)cc5)CC4)C3)CC2)CCN(c2cnnc(-c3ccccc3O)c2)CC1 (mixture of isomers) [Example 63, N-{1-[(3RS)-8-{4-[(3R)-2,6-dioxopiperidin-3-yl]phenyl}-1-oxa-8-azaspiro[4.5]decan-3-yl]piperidin-4-yl}-1-[6-(2-hydroxyphenyl)pyridazin-4-yl]-n-methyl-4-(5-methyl-1H-pyrazol-1-yl)piperidine-4-carboxamide]	32.2	8.77	80.5	1140	–
Cc1ccccc1OC1(C(=O)N(C)C2CCN(C(=O)CN3CCC(c4ccc([C@@H]5CCC(=O)NC5=O)cc4)CC3)CC2)CCN(c2cnnc(-c3ccccc3O)c2)CC1 (racemic) [Example 116, rac-n-(1-(2-(4-(4-(2,6-dioxopiperidin-3-yl)phenyl)piperidin-1-yl)acetyl)piperidin-4-yl)-1-(6-(2-hydroxyphenyl)pyridazin-4-yl)-n-methyl-4-(o-tolyloxy)piperidine-4-carboxamide]	75.8	7.97	88.6	7	57.4
Cc1ccccc1C1(C(=O)N2CC3(CN(CC4CCN(c5ccc(C6CCC(=O)NC6=O)cc5)CC4)C3)C2)CCN(c2cnnc(-c3ccccc3O)c2)CC1 (racemic) [Example 33, rac-(3R)-3-(4-{4-[(6-{1-[6-(2-hydroxyphenyl)pyridazin-4-yl]-4-(2-methylphenyl)piperidine-4-carbonyl}-2,6-diazaspiro[3.3]heptan-2-yl)methyl]piperidin-1-yl}phenyl)piperidine-2,6-dione]	56	11.7	78.9	6.16	71.9
Cc1ccnn1C1(C(=O)N(C)C2CCN(CCC3CCN(c4ccc(C5CCC(=O)NC5=O)c(F)c4)CC3)CC2)CCN(c2cnnc(-c3ccccc3O)c2)CC1 (racemic) [Example 65, rac-N-{1-[2-(1-{4-[(3R)-2,6-dioxopiperidin-3-yl]-3-fluorophenyl}piperidin-4-yl)ethyl]piperidin-4-yl}-1-[6-(2-hydroxyphenyl)pyridazin-4-yl]-n-methyl-4-(5-methyl-1H-pyrazol-1-yl)piperidine-4-carboxamide]	55.4	3.33	89.2	27	88.6
CN(C(=O)C1(c2ccccc2)CCN(c2cnnc(-c3ccccc3O)c2)CC1)C1CCN([C@@H]2COC3(CCN(c4ccc([C@H]5CCC(=O)NC5=O)cc4)CC3)C2)CC1 (single isomer, unassigned) [Example 148]	41.4	6.84	83	1462	–
O=C1CC[C@@H](c2cccc(N3CCC(CN4CCC5(CC4)CN(C(=O)C4(c6ccccc6)CCN(c6cnnc(-c7ccccc7O)c6)CC4)C5)CC3)c2)C(=O)N1 (racemic) [Example 101, rac-®-3-(3-(4-((2-(1-(6-(2-hydroxyphenyl)pyridazin-4-yl)-4-phenylpiperidine-4-carbonyl)-2,7-diazaspiro[3.5]nonan-7-yl)methyl)piperidin-1-yl)phenyl)piperidine-2,6-dione]	60.2	19.5	71	6	114
O=C1CC[C@@H](c2ccc(N3CCC(CN4CCCC(CNC(=O)C5(c6ccccc6)CCN(c6cnnc(-c7ccccc7O)c6)CC5)C4)CC3)cc2)C(=O)N1 (stereo partly drawn) [Example 10, N-({1-[(1-{4-[(3S)-2,6-dioxopiperidin-3-yl]phenyl}piperidin-4-yl)methyl]piperidin-3-yl}methyl)-1-[6-(2-hydroxyphenyl)pyridazin-4-yl]-4-phenylpiperidine-4-carboxamide]	25.6	80.1	59.3	124.82	–
